This series is described as follows: Hemolysis assay. It counts as cell-based. The conditions noted are these: sheep; 2% (v/v) erythrocyte suspension, 0.05-1 mg/mL, 37 °C 30 min; read-out: hemolysis rate. As to the method:
The hemolytic activity was evaluated using a modified reference method. Briefly, sheep erythrocytes were isolated by centrifugation at 1000× g for 5 min following washing with physiological saline. The washing procedure was repeated until the supernatant became colorless, and the erythrocyte pellet was collected. A 2% (v/v) erythrocyte suspension was prepared in physiological saline. Aliquots (1 mL) of the suspension were incubated with peptide solutions (KW, WQIWYK, […]) at concentrations of 0.05, 0.1, 0.5, and 1 mg/mL. Experimental controls included 0.1% Triton X-100 (positive control) and sterile PBS (negative control). Following incubation at 37 °C for 30 min, samples were centrifuged at 1000× g for 5 min. Hemoglobin release was quantified by measuring the absorbance of 200 μL supernatant at 425 nm using a microplate reader. The hemolysis percentage was calculated as follows:Hemolysis (%) = (As − AN)/(AP − AN) × 100 where As, AN, and AP represent the absorbance values of the sample, negative control, and positive control, respectively.

Residues, ends and D or L forms follow the SMILES beside them. No end group written: not given here.

As for `NCCCC[C@H](N)C(=O)N[C@@H](Cc1c[nH]c2ccccc12)C(=O)O` [KW] (H-Lys-Trp-OH; N-terminus and C-terminus assumed), the hemolysis at 30 min was less than 5%.

WQIWYK [WQIWYK]: the hemolysis at 30 min is less than 5%.

The values above are taken from PMC11990805, “Investigation of Anticancer Peptides Derived from Arca Species Using In Silico Analysis” (Molecules, 2025).
